# Patent publication US4844895A, “Composition containing a peptide fragment of platelet factor four and method for restoring suppressed immune responses” (New York University, priority 1987, dated 1989)
# No end group written: not given here.
# Columns and labels:
# [1] = test system: Con A-induced suppression; assay: Reversal of Con A-induced suppression of the splenic plaque-forming cell (PFC) response to SRBC in mice; type: in vivo; conditions: for Reversal of Con A-induced suppression (result in words): mice, PFC response to SRBC; for Activity / effective amount on a molar basis relative to the PF4 holoprotein: restoring suppressed immune responses in mice
# Protocol: Concanavalin A (Miles--Yeda Ltd., Research Products, Israel) was reconstituted with saline and kept frozen. Dilutions from the frozen stock were stored at 4° C. and injected i.v. into mice one day prior to antigen, sheep erythrocytes (SRBC). SRBC were obtained from Colorado Serum Company (Denver, Colorado) washed, counted and injected intraperitoneally (i.p.) in mice. Human serum or platelet releasate was administered i.v. one to two hours before Con A i.v.
# The spleens of the mice were assayed for plaque-forming cells (PFC) on day 5 after injection of sheep red blood cells. The assay employed was as follows: single-cell suspensions were prepared from individual spleens of mice. The cells were suspended in Hanks' Balanced Salt Solution (Gibco Laboratories, Grand Island, New York) and washed. Direct PFC were enumerated using the well-known method of Jerne, N.K. et al (in Cell-Bound Antibody, Amos, E. and Koprowsky, H. eds., Wistar Institute Press. pp. 109-111, […]) with the slide modification of Mishell, R.I. and Dutton, R.W. (J. Exp. Med. 126:423, 1967), both incorporated by reference. […]
# When treated with thrombin or A23187 (Calcium ionophore), platelets also release alpha granule constituents other than PF4. In particular, they release LA-PF4 and PDGF. The inventors tested the ability of LA-PF4 and PDGF to overcome suppression induced by 5 μg Con A. […]
# Mice were injected with 10 micrograms of Con A i.v. on day -1 (except in the positive control, which received no Con A) and on day 0 with 2.5×10^6 SRBC per mouse as in Example 2 above. On day -1, the mice also received either: Nothing (100% control), Con A only, platelet releasate (equivalent to the amount of PF4 holoprotein contained in the platelet releasate from 2×10^7 platelets or about 0.12 microgram/mouse) and various concentrations of the above-mentioned synthetic C-terminal peptide of human PF4.
# [2] = test system: spleen, lymph node and thymus cells; assay: Absorption of immunoregulatory activity by cells from lymphoid organs, read out as reversal of Con A-induced suppression (PFC/spleen); type: in vivo, CB6F1 mouse
# Protocol: The spleens of the mice were assayed for plaque-forming cells (PFC) on day 5 after injection of sheep red blood cells. The assay employed was as follows: single-cell suspensions were prepared from individual spleens of mice. The cells were suspended in Hanks' Balanced Salt Solution (Gibco Laboratories, Grand Island, New York) and washed. Direct PFC were enumerated using the well-known method of Jerne, N.K. et al (in Cell-Bound Antibody, Amos, E. and Koprowsky, H. eds., Wistar Institute Press. pp. 109-111, […]) with the slide modification of Mishell, R.I. and Dutton, R.W. (J. Exp. Med. 126:423, 1967), both incorporated by reference.
# In order to confirm and expand this finding, 1 ml o serum, diluted 1:2, was absorbed twice for thirty minutes at 4° C. using half the number of cells for each absorption as are listed for spleen (Sp1), lymphnode (LN) and thymus (Thy) in Table 3. Each CB6F1 mouse received 0.2 ml of a 1:4 dilution of absorbed or unabsorbed serum i.v. one to two hours before administration of 2×10^6 SRBC i.v. Plaque-forming cell response was measured as in Example 2.
# The experiments were performed exactly as described for the PF4 holoprotein in Example 4 above, except that 0.5 (Expt. 1) or 2.5 micrograms (Expt. 2) of the PF4 tridecapeptide was administered.
# monocytes = conditions: Osterman et al, Biochem. Biophys. Res. Comm. 107:130-135, 1982; cited from earlier work
# [3] = 10 micrograms Con A, 0.7-1 μg Tridecapeptide
# [4] = 10 micrograms Con A, 2.5-7 μg Tridecapeptide
# [5] = 10 micrograms Con A, 2.5-7 μg Tridecapeptide on day -1, n 5-10
substance,measurement,setting,value
"Pro-Leu-Tyr-Lys-Lys-Ile-Ile-Lys-Lys-Leu-Leu-Glu-Ser-COOH (PLYKKIIKKLLES-OH) [Tridecapeptide, carboxy-terminal 13 amino acid residues of human PF4]",Reversal of immunosuppression induced by Con A (result in words),[1]; 0.7-7 micrograms administered to mice,active in reversing the immunosuppression induced by Con A
same,Expt.1 % (of 100% control),"[1]; 10 micrograms Con A, 0.007 μg Tridecapeptide",52%
same,"Geom. Mean PFC/Spleen (SE), Expt.1 PFC","[1]; 10 micrograms Con A, 0.007 μg Tridecapeptide on day -1, n 5-10","5,700(1.4) PFC/Spleen"
same,Expt.1 % (of 100% control),"[1]; 10 micrograms Con A, 0.07 μg Tridecapeptide",37%
same,"Geom. Mean PFC/Spleen (SE), Expt.1 PFC","[1]; 10 micrograms Con A, 0.07 μg Tridecapeptide on day -1, n 5-10","4,000(1.4) PFC/Spleen"
same,Expt.1 % (of 100% control),[1]; [3],95%
same,Expt.2 % (of 100% control),[1]; [3],226%
same,"Geom. Mean PFC/Spleen (SE), Expt.1 PFC","[1]; 10 micrograms Con A, 0.7-1 μg Tridecapeptide on day -1, n 5-10","10,400(1.1) PFC/Spleen"
same,Expt.1 % (of 100% control),[1]; [4],99%
same,Expt.3 % (of 100% control),[1]; [4],270%
same,"Geom. Mean PFC/Spleen (SE), Expt.1 PFC",[1]; [5],"10,900(1.2) PFC/Spleen"
same,"Geom. Mean PFC/Spleen (SE), Expt.3 PFC",[1]; [5],"38,800(1,1) PFC/Spleen"
same,Reversal of Con A-induced suppression (result in words),[1],able to overcome Con A-induced suppression in a dose-dependent fashion
same,Activity / effective amount on a molar basis relative to the PF4 holoprotein,[1],less than that of the holoprotein
same,Activity / effective amount on a molar basis relative to the PF4 holoprotein,[1]; listed as PF4 tridecapeptide,About three times more
same,"Geom mean PFC/Spleen, Expt. 1 Geom. Mean","[2]; SRBC + Con A, 0.5 μg/mouse tridecapeptide, unabsorbed or absorbed with cells","23,488 PFC/Spleen"
same,"Geom mean PFC/Spleen, Expt. 2 Geom. Mean","[2]; SRBC + Con A, 2.5 μg/mouse tridecapeptide, unabsorbed or absorbed with cells","38,790 PFC/Spleen"
same,Absorption of the immunoregulatory activity by cells (result in words),[2]; normal mouse spleen cells,spleen cells can absorb
same,Chemotactic activity for monocytes (result in words),monocytes,potent chemotactic agent
"PDGF: platelet-derived growth factor, platelet alpha-granule constituent [reference compound]","Geom. Mean of PFC/Spleen On Day 5, Expt. 1","[1]; 5 μg Con A, antilog of standard error ≤ 1.1, n = 4, PDGF 0.003 μg per mouse","8,370 PFC/Spleen"
same,Immunomodulatory activity against suppression induced by 5 μg Con A (result in words),"[1]; concentrations well below those in serum: PDGF 0.003 μg, LA-PF4 0.6 μg, purified PF4 0.2 to 0.6 μg per mouse",little or not activity
same,Reversal of Con A-induced suppression (result in words),[1],no significant immunomodulating activity
